Data published in ChEMBL document CHEMBL4725493, “Novel 2-Aryloxazoline Compounds Exhibit an Inhibitory Effect on Candida spp., Including Antifungal-Resistant Isolates” (ACS Med Chem Lett, 2020).
Converted amounts (≈) assume the structure as drawn. The source made the active and inactive calls. The rule behind the calls is not given here.

Columns and labels:
[1] = test system: Erythrocyte; assay: Hemolytic activity in human RBC by spectrophotometry; type: ADME, cell-based
[2] = test system: Candida tropicalis; assay: Antifungal activity against Candida tropicalis ATCC 200956 by CLSI standard M27 broth microdilution method; type: functional
[3] = Selectivity index, ratio of CC50 of human HepG2 cells to MIC of antifungal activity against Candida tropicalis ATCC 200956; type: toxicity
[4] = Selectivity index, ratio of HA50 to human RCB to MIC of antifungal activity against Candida tropicalis ATCC 200956; type: toxicity; conditions: human red blood cells (RCB)
[5] = test system: HepG2; assay: Cytotoxicity against human HepG2 cells assessed as reduction in cell viability by XTT assay; type: cell-based
[6] = test system: Candida duobushaemulonii; assay: Antifungal activity against Candida duobushaemulonis CBS 7799 by CLSI standard M27 broth microdilution method; type: functional; conditions: Candidozyma duobushaemuli
[7] = Antifungal activity against Candida pseudohaemulonis CBS 10004 by broth microdilution method; type: functional; conditions: Candidozyma pseudohaemuli
[8] = test system: [Candida] auris; assay: Antifungal activity against Candida auris CBS 12766 by CLSI standard M27 broth microdilution method; type: functional; conditions: Candidozyma auris
[9] = test system: Cryptococcus neoformans; assay: Fungicidal activity against Cryptococcus neoformans ATCC 208821 assessed as loss of fungal growth by CLSI method; type: functional, organism-based
[10] = test system: Cryptococcus gattii; assay: Fungicidal activity against Cryptococcus gattii ATCC 56990 assessed as loss of fungal growth by CLSI method; type: functional, organism-based; conditions: Cryptococcus bacillisporus
[11] = test system: Aspergillus fumigatus; assay: Antifungal activity against Aspergillus fumigatus ATCC 16913 by CLSI standard M38 broth microdilution method; type: functional, organism-based
[12] = test system: [Candida] auris; assay: Antifungal activity against Candida auris CBS 10913 by CLSI standard M27 broth microdilution method; type: functional; conditions: Candidozyma auris
[13] = test system: Aspergillus niger; assay: Antifungal activity against Aspergillus niger by CLSI standard M38 broth microdilution method; type: functional, organism-based

Structure (SMILES): C[C@@H]1OC(c2ccc3ccccc3c2O)=N[C@@H]1C(=O)OCc1ccccc1
- Activity [1]: > 128 µg/mL
- MIC [2]: ≤ 0.03 µg/mL
- selectivity ratio [3]: ≥ 176
- selectivity ratio [4]: ≥ 256
- CC50 [5]: 88 µg/mL (≈ 243 µM)

Structure (SMILES): COC(=O)C1N=C(c2cc(Cl)c3ccccc3c2O)O[C@H]1C (single isomer, unassigned)
- Activity [1]: > 128 µg/mL
- MIC [2]: 0.25 µg/mL (≈ 0.782 µM)
- selectivity ratio [3]: 1
- selectivity ratio [4]: ≥ 16
- CC50 [5]: 11 µg/mL (≈ 34.4 µM)

Structure (SMILES): CCNC(=O)[C@H]1N=C(c2ccc3ccccc3c2O)O[C@H]1C
- Activity [1]: > 128 µg/mL
- MIC [2]: ≤ 0.03 µg/mL
- selectivity ratio [3]: ≥ 128
- selectivity ratio [4]: ≥ 128
- CC50 [5]: > 128 µg/mL

Structure (SMILES): C[C@@H]1OC(c2cc(Cl)c3ccccc3c2O)=N[C@@H]1C(=O)OC[C@H]1COC(C)(C)O1
- Activity [1]: > 128 µg/mL
- MIC [2]: ≤ 0.03 µg/mL
- selectivity ratio [3]: ≥ 1
- selectivity ratio [4]: ≥ 16
- CC50 [5]: 7.2 µg/mL (≈ 17.1 µM)

Structure (SMILES): C[C@@H](O)[C@H](NC(=O)c1ccc2ccccc2c1O)C(=O)OCc1ccccc1
- Activity [1]: > 128 µg/mL
- MIC [2]: 8 µg/mL (≈ 21.1 µM)
- selectivity ratio [3]: 3
- selectivity ratio [4]: > 8
- CC50 [5]: 40 µg/mL (≈ 105 µM)

Structure (SMILES): C[C@H]1OC(c2ccc(Br)cc2O)=N[C@H]1C(=O)OCc1ccccc1
- Activity [1]: > 128 µg/mL
- MIC [2]: 0.06 µg/mL (≈ 0.154 µM)
- selectivity ratio [3]: 62
- selectivity ratio [4]: ≥ 128
- CC50 [5]: 62 µg/mL (≈ 159 µM)

Structure (SMILES): C[C@H]1OC(c2ccccc2O)=N[C@H]1C(=O)OCc1ccccc1
- Activity [1]: > 128 µg/mL
- MIC [2]: ≤ 0.03 µg/mL
- selectivity ratio [3]: ≥ 26
- selectivity ratio [4]: ≥ 32
- CC50 [5]: 102 µg/mL (≈ 328 µM)

Structure (SMILES): C[C@@H]1OC(c2cc(Cl)c3ccccc3c2O)=NC1C(=O)Nc1ccc2ncsc2c1 (single isomer, unassigned)
- Activity [1]: > 128 µg/mL
- MIC [6]: 0.06 µg/mL (≈ 0.137 µM)
- MIC [7]: 0.03 µg/mL (≈ 0.0685 µM)
- MIC [8]: 2 µg/mL (≈ 4.57 µM)
- Activity [9]: Active
- Activity [10]: Active
- MIC [2]: ≤ 0.03 µg/mL
- selectivity ratio [3]: ≥ 133
- inhibition [11]: Active
- MIC [12]: 0.06 µg/mL (≈ 0.137 µM)
- selectivity ratio [4]: ≥ 1070
- CC50 [5]: 16 µg/mL (≈ 36.5 µM)
- inhibition [13]: Active

Structure (SMILES): C[C@@H]1OC(c2cc(Br)c3ccccc3c2O)=N[C@@H]1C(=O)OCc1ccccc1 (single isomer, unassigned)
- Activity [1]: > 128 µg/mL
- MIC [2]: ≤ 0.03 µg/mL
- selectivity ratio [3]: ≥ 18
- selectivity ratio [4]: ≥ 256
- CC50 [5]: 9 µg/mL (≈ 20.4 µM)

Structure (SMILES): C[C@H]1OC(c2cc(Br)ccc2O)=N[C@H]1C(=O)OCc1ccccc1
- Activity [1]: > 128 µg/mL
- MIC [2]: ≤ 0.03 µg/mL
- selectivity ratio [3]: ≥ 88
- selectivity ratio [4]: ≥ 128
- CC50 [5]: 88 µg/mL (≈ 226 µM)

Structure (SMILES): C[C@@H]1OC(c2cc(Cl)c3ccccc3c2O)=NC1C(=O)Nc1ccccc1NC(=O)[C@@H]1N=C(c2cc(Cl)c3ccccc3c2O)O[C@@H]1C (single isomer, unassigned)
- Activity [1]: > 128 µg/mL
- MIC [2]: ≤ 0.03 µg/mL
- selectivity ratio [3]: ≥ 23
- selectivity ratio [4]: ≥ 32
- CC50 [5]: 90 µg/mL (≈ 132 µM)

Structure (SMILES): CC[C@H](C)C[C@H](C)CCCCCCCCC(=O)N[C@H]1C[C@@H](O)[C@@H](NCCN)NC(=O)[C@@H]2[C@@H](O)CCN2C(=O)[C@H]([C@H](O)CCN)NC(=O)[C@H]([C@H](O)[C@@H](O)c2ccc(O)cc2)NC(=O)[C@@H]2C[C@@H](O)CN2C(=O)[C@H]([C@@H](C)O)NC1=O [CASPOFUNGIN]
- MIC [6]: 0.25 µg/mL (≈ 0.229 µM)
- MIC [7]: 0.5 µg/mL (≈ 0.457 µM)
- MIC [8]: 0.25 µg/mL (≈ 0.229 µM)
- MIC [2]: ≤ 0.03 µg/mL
- selectivity ratio [3]: 16
- MIC [12]: 0.12 µg/mL (≈ 0.11 µM)
- selectivity ratio [4]: ≥ 16
- CC50 [5]: 32 µg/mL (≈ 29.3 µM)

Structure (SMILES): CCNC(=O)C1N=C(c2cc(Cl)c3ccccc3c2O)O[C@H]1C (single isomer, unassigned)
- Activity [1]: > 128 µg/mL
- MIC [2]: 0.06 µg/mL (≈ 0.18 µM)
- selectivity ratio [3]: ≥ 128
- selectivity ratio [4]: ≥ 128

Structure (SMILES): C[C@@H]1OC(c2cc(Cl)c3ccccc3c2O)=N[C@@H]1C(=O)OC/C=C/c1ccccc1
- Activity [1]: > 128 µg/mL
- MIC [2]: ≤ 0.03 µg/mL
- selectivity ratio [3]: ≥ 1
- selectivity ratio [4]: ≥ 8
- CC50 [5]: 10 µg/mL (≈ 23.7 µM)

Structure (SMILES): C=CCOC(=O)C1N=C(c2cc(Cl)c3ccccc3c2O)O[C@H]1C (single isomer, unassigned)
- Activity [1]: > 128 µg/mL
- MIC [2]: ≤ 0.03 µg/mL
- selectivity ratio [3]: ≥ 11
- selectivity ratio [4]: ≥ 128
- CC50 [5]: 11 µg/mL (≈ 31.8 µM)

Structure (SMILES): C[C@H]1OC(c2cc(F)ccc2O)=N[C@H]1C(=O)OCc1ccccc1
- Activity [1]: > 128 µg/mL
- MIC [2]: ≤ 0.03 µg/mL
- selectivity ratio [3]: ≥ 128
- selectivity ratio [4]: ≥ 128
- CC50 [5]: > 128 µg/mL

Structure (SMILES): COc1ccc(O)c(C2=N[C@@H](C(=O)OCc3ccccc3)[C@@H](C)O2)c1
- Activity [1]: > 128 µg/mL
- MIC [2]: ≤ 0.03 µg/mL
- selectivity ratio [3]: 25
- selectivity ratio [4]: ≥ 32
- CC50 [5]: 100 µg/mL (≈ 293 µM)

Structure (SMILES): C[C@H]1OC(c2ccc(N=[N+]=[N-])cc2O)=N[C@H]1C(=O)OCc1ccccc1
- Activity [1]: > 128 µg/mL
- MIC [2]: ≤ 0.03 µg/mL
- selectivity ratio [3]: ≥ 100
- selectivity ratio [4]: ≥ 128
- CC50 [5]: 100 µg/mL (≈ 284 µM)

Structure (SMILES): C[C@H]1OC(c2cc(I)ccc2O)=N[C@H]1C(=O)OCc1ccccc1
- Activity [1]: > 128 µg/mL
- MIC [2]: ≤ 0.03 µg/mL
- selectivity ratio [3]: ≥ 64
- selectivity ratio [4]: ≥ 128
- CC50 [5]: 64 µg/mL (≈ 146 µM)

Structure (SMILES): C#CCNC(=O)C1N=C(c2cc(Cl)c3ccccc3c2O)O[C@H]1C (single isomer, unassigned)
- Activity [1]: > 128 µg/mL
- MIC [2]: ≤ 0.03 µg/mL
- selectivity ratio [3]: ≥ 132
- selectivity ratio [4]: ≥ 512
- CC50 [5]: 33 µg/mL (≈ 96.3 µM)

Structure (SMILES): C[C@@H]1OC(c2cc(Cl)c3ccccc3c2O)=NC1C(=O)OCc1ccoc1 (single isomer, unassigned)
- Activity [1]: > 128 µg/mL
- MIC [2]: ≤ 0.03 µg/mL
- selectivity ratio [3]: ≥ 2
- selectivity ratio [4]: ≥ 32
- CC50 [5]: 6 µg/mL (≈ 15.6 µM)

Structure (SMILES): C[C@@H]1[C@H](O)[C@@H](C)/C=C/C=C/C=C/C=C/C=C/C=C/C=C/[C@H](O[C@@H]2O[C@H](C)[C@@H](O)[C@H](N)[C@@H]2O)C[C@@H]2O[C@](O)(C[C@@H](O)C[C@@H](O)[C@H](O)CC[C@@H](O)C[C@@H](O)CC(=O)O[C@H]1C)C[C@H](O)[C@H]2C(=O)O [AMPHOTERICIN B]
- Activity [1]: 17 µg/mL
- MIC [6]: 4 µg/mL (≈ 4.33 µM)
- MIC [7]: 8 µg/mL (≈ 8.66 µM)
- MIC [8]: 2 µg/mL (≈ 2.16 µM)
- MIC [2]: ≤ 0.03 µg/mL
- selectivity ratio [3]: ≥ 16
- MIC [12]: 0.5 µg/mL (≈ 0.541 µM)
- selectivity ratio [4]: ≥ 68
- CC50 [5]: 4 µg/mL (≈ 4.33 µM)

Structure (SMILES): C[C@@H]1OC(c2cc(Cl)c3ccccc3c2O)=N[C@@H]1C(=O)OCc1ccccc1
- Activity [1]: > 128 µg/mL
- MIC [2]: 0.06 µg/mL (≈ 0.152 µM)
- selectivity ratio [3]: 8
- selectivity ratio [4]: ≥ 64
- CC50 [5]: 15 µg/mL (≈ 37.9 µM)

Structure (SMILES): C[C@H]1OC(c2ccc(I)cc2O)=N[C@H]1C(=O)OCc1ccccc1
- Activity [1]: > 128 µg/mL
- MIC [2]: ≤ 0.03 µg/mL
- selectivity ratio [3]: ≥ 62
- selectivity ratio [4]: ≥ 128
- CC50 [5]: 62 µg/mL (≈ 142 µM)

Structure (SMILES): COC(=O)[C@H]1N=C(c2ccc3ccccc3c2O)O[C@H]1C
- Activity [1]: > 128 µg/mL
- MIC [2]: 0.06 µg/mL (≈ 0.21 µM)
- selectivity ratio [3]: 5
- selectivity ratio [4]: ≥ 8
- CC50 [5]: 84 µg/mL (≈ 294 µM)

Structure (SMILES): OC(Cn1cncn1)(Cn1cncn1)c1ccc(F)cc1F [FLUCONAZOLE]
- Activity [1]: > 128 µg/mL
- MIC [6]: > 64 µg/mL
- MIC [7]: 16 µg/mL (≈ 52.2 µM)
- MIC [8]: > 0.064 µg/mL
- MIC [2]: 1 µg/mL (≈ 3.27 µM)
- selectivity ratio [3]: ≥ 1
- MIC [12]: 2 µg/mL (≈ 6.53 µM)
- selectivity ratio [4]: ≥ 1
- CC50 [5]: > 128 µg/mL

Structure (SMILES): COc1cccc(O)c1C1=N[C@@H](C(=O)OCc2ccccc2)[C@@H](C)O1
- Activity [1]: > 128 µg/mL
- MIC [2]: 0.12 µg/mL (≈ 0.352 µM)
- selectivity ratio [3]: 6
- selectivity ratio [4]: ≥ 8
- CC50 [5]: 101 µg/mL (≈ 296 µM)
